No end group written: not given here.
Legend:
[1] = test system: RPtag (large) resin; test: Affinity-based precipitation/pull-down with RPtag (large) resin; assay type: binding, Thermoanaerobacter tengcongensis; conditions: negative control peptide
Experimental: The disclosed proteins and peptides were used in precipitation/pull-down assays. Specifically, rhodamine was tagged with the RPtag(small) Nd8Cd4 peptide and RPtag(large) was immobilized on a resin, as described above.
Briefly, 100 μL 1000 nM rhodamine labeled RPtag(small) peptide was incubated with 2.5 uL wet settled RPtag (large) resin generated as (as described above) in phosphate buffered saline (PBS; Gibco)+1% BSA+0.005% Tween 20 at 4° C. for 60 min with continuous orbital shaking. Samples were then washed 3× with 500 μL of the same buffer with no peptide to remove unbound peptide. Bound RPtag(small) peptides were then eluted with 100 μL 100 mM glycine pH 1.5+0.005% Tween20, and the pH raised by adding 1 μL 1 M borate pH 10.0. The amount eluted was calculated from the blank subtracted fluorescence of the elution versus the load. After each elution, resin was washed once with 500 μL 6M GdnHCl and once with 500 μL phosphate buffered saline (Gibco)+1% BSA+0.005% Tween 20, before repeating the assay.
Sequential precipitation/pulldown trials were performed with the rhodamine labelled RPtag(small) Nd8Cd4 peptide, and the RPtag(large)-resin. After binding and pull-down, the rhodamine-peptide was eluted in 100 mM glycine pH 1.5, the column was washed with water and 6 M guanidine hydrochloride, and then re-equilibrated with buffer (50 mM Tris pH 8.0, 10 mM EDTA). […]

[2] = molecular target: RPtag (large); test: Fluorescence anisotropy Kd of rhodamine labeled RPtag (small) peptides for RPtag (large); assay type: binding, Thermoanaerobacter tengcongensis
Experimental: (§1) 50 nM of RP-Tag Small (see Sequence 3, below) with an N-terminal Rhodamine B label was incubated with increasing concentrations of either RP-Tag Large (see Sequence 2) or Bovine Serum Albumin (BSA) in 50 mM Tris pH 8.0, 150 mM NaCl, 10 mM 2-mercaptoethanol, and 0.005% Tween 20 for 5 min in black 96-well plates at room temperature.
(§2) Anisotropy was then measured, and a Kd calculated by fitting the data to the equation f=y0+(ymax−y0)*(Ptot+x+Kd−sqrt((Ptot+x+Kd)^2−4*Ptot*x))/(2*Ptot), where y0 is the baseline anisotropy, ymax is the maximum anisotropy, Ptot is the fixed concentration of labeled peptide used, x is the variable concentration of protein used, and Kd is the measured Kd.
(§3) The indicated concentrations of RPtag (large) and an anti-His tag antibody (4E3D10H2/E3 purchased from ThermoFisher Scientific) were incubated with 1 nM rhodamine labeled native RPtag (small) peptide and 6×His peptide (Rhodamine-GHHHHHH), respectively, and fluorescence anisotropy measured. BSA incubated with native rhodamine labeled RPtag(small) is included as a control for non-specific binding. Kd's were calculated according to the equation f=y0+(ymax−y0)*(Ptot+x+Kd−sqrt((Ptot+x+Kd)^2−4*Ptot*x))/(2*Ptot), where y0 is the baseline anisotropy, ymax is the maximum anisotropy, Ptot is the fixed concentration of labeled peptide used, x is the variable concentration of protein used, and Kd is the measured Kd. We measured a Kd of 0.2±0.1 nM for RPtag(large) binding RPtag(small), and a Kd of 6±1 nM for the antibody/6×His tag pair.
Regarding the studies shown in FIG. 14, increasing concentrations of unlabeled RPtag large with the indicated mutations (native, f137d, and f137e) were incubated for 1 h with 1 nM rhodamine labeled RPtag small peptide and the fluorescence anisotropy was measured. Resultant curves were fit with the equation f=y0+(ymax−y0)*(Ptot+x+Kd−sqrt((Ptot+x+Kd)^2−4*Ptot*x))/(2*Ptot), where y0 is the baseline anisotropy, ymax is the maximum anisotropy, Ptot is the fixed concentration of labeled peptide used, x is the variable concentration of protein used, and Kd is the measured Kd. Data are presented here as Ka=1/Kd. Log transformed Ka's were then compared by one-way ANOVA with Holm-Sidak post hoc correction. ***p<0.001, **p<0.01, *p<0.05. data are mean±SEM (n=3-4). Buffer was 50 mM Tris pH 8.0, 0.005% tween20. Proteins were expressed and purified by single step NiNTA chromatography as before. Peptides were synthesized solid-state and handled as previous.

[3] = test system: F137D RPtag(large); test: Compensatory mutation binding study by fluorescence anisotropy; design: species or system Thermoanaerobacter tengcongensis; conditions: 1 nM rhodamine labeled peptide
F137D RPtag(large), sequence (as listed by the source, stated change not applied): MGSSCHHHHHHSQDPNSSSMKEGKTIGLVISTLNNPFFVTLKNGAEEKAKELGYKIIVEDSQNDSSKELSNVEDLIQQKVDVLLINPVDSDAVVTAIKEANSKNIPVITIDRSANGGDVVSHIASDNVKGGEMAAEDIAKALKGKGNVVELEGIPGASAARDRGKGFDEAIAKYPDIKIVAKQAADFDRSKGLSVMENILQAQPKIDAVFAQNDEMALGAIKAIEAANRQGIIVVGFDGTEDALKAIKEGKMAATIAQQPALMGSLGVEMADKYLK
Text: The possibility of creating compensatory mutations in the two sequences was investigated by modifying position 14 of RPtag(small) and position 137 of RPtag(large). First, a positively charged lysine (K) was introduced at position L14 of RPtag(small) (FIG. 14). […] Next, position F137 of RPtag(large) was mutated to aspartic acid (D), which is a negatively charged residue under physiologic conditions. This substitution was introduced into RPtag(large) to balance the charge with the L14K substitution, and help restore interaction between the two residues. […] In other embodiments, different compensatory mutations may be introduced at F137 and L14, as well as other positions in the two RPtag proteins.
Regarding the studies shown in FIG. 14, increasing concentrations of unlabeled RPtag large with the indicated mutations (native, f137d, and f137e) were incubated for 1 h with 1 nM rhodamine labeled RPtag small peptide and the fluorescence anisotropy was measured. Resultant curves were fit with the equation f=y0+(ymax−y0)*(Ptot+x+Kd−sqrt((Ptot+x+Kd)^2−4*Ptot*x))/(2*Ptot), where y0 is the baseline anisotropy, ymax is the maximum anisotropy, Ptot is the fixed concentration of labeled peptide used, x is the variable concentration of protein used, and Kd is the measured Kd. Data are presented here as Ka=1/Kd. […]

[4] = test system: immobilized RP-Tag Large; test: Column elution trials of rhodamine labeled RP-Tag Small bound to immobilized RP-Tag Large; assay type: binding, Thermoanaerobacter tengcongensis
Experimental: One embodiment of the disclosed RP-Tag system was tested by creating a column with one component bound to a solid, agarose-based matrix. In these experiments, a SulfoLink™ Immobilization kit (ThermoFisher scientific) was used to affix RP-Tag Large to a solid support, according to the manufacturer's instructions. For these experiments, an N-terminal linker was added to RP-Large that included a Cys residue. One of skill in the art is able to select various techniques and chemistries to aid in affixing either RP-Tag protein to a solid support matrix.
The amount of protein linked to the column was determined using a BCA assay with Bovine Serum Albumin (BSA) as a standard. […] The linked resin was poured into an included column and the column capped with a frit included in the kit (see photos in FIG. 2). The column was equilibrated with several volumes of 50 mM Tris pH 8.5, 150 mM NaCl, 5 mM EDTA.
25 mL of 1 μM Rhodamine-6B labeled RP-Tag Small, in 50 mM Tris pH 8.5, 150 mM NaCl, 5 mM EDTA, was flowed over the column of immobilized RP-Tag Large protein. RP-Tag Small bound the column and formed a visibly bright red band (rhodamine B) at the top of the resin (see FIG. 2).
Briefly, after binding, the RP-Tag Small red band was not observed to appreciably diffuse and/or elute after washing the column (and band) with various solutions. For these tests, 10 mL (5 column volumes) of various buffers were added to the column. The tested buffers ranged from about pH 1.5-13.7 and about 1 M sodium hydroxide.
Table 1. Summary of elution trial data. The test system used was a column equilibrated with 50 mM Tris pH 8.5, 150 mM NaCl, 5 mM EDTA, and applied 25 mL 1 μM Rhodamine-6B labeled RP-small peptide in the same buffer. In cases where D-ribose was used, the indicated concentration was also included in the equilibration and loading buffer.

[5] = molecular target: Bovine Serum Albumin (BSA) (Bos taurus, UniProt P02769); assay type: binding; conditions: fluorescence anisotropy, rhodamine labeled peptide; up to 10 μM BSA
Bovine Serum Albumin (BSA), sequence (P02769 25-607): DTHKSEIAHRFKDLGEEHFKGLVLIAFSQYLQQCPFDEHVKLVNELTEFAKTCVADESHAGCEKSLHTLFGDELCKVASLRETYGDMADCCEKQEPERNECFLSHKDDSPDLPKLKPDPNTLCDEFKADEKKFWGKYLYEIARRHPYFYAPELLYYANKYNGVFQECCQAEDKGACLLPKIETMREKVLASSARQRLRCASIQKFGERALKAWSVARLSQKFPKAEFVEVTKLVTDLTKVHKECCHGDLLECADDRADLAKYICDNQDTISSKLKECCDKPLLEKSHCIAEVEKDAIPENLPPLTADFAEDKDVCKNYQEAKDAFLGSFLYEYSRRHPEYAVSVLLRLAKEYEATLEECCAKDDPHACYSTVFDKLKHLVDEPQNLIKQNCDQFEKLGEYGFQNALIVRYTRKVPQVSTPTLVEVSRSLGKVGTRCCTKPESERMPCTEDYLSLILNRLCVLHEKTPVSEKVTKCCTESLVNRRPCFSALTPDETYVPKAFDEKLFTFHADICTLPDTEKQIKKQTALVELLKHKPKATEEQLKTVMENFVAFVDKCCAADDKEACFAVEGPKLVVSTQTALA
Experimental: as §1, §2, §3

RPtag (large) resin, sequence (as listed by the source): as the sequence (as listed by the source, stated change not applied) above, with D137F counted along it

## GEKIPNFIP [Cd12]
[1]
  binding in pulldown: no binding
[2]; N-terminal rhodamine tagged peptide, unlabeled RPtag (large), 50 mM Tris pH 8.0, 0.005% Tween 20, mean ± SE
  Kd: > 100000 nM

## GEKIPNFIPAELKKITKENVQ [l14k]
[3]
  binding affinity for F137D RPtag(large): substantially restored the binding affinity
[2]; 1 nM rhodamine labeled peptide, 50 mM Tris pH 8.0, 0.005% tween20
  binding to native RPtag(large): significantly impaired binding

## GEKIPNFIPAELKLITKENVQ [RP-Tag Small]
[4]; 0.1M Tris pH 7.5 + 100 μM unlabeled RP tag peptide
  Result of elution trial (bound rhodamine band): Partial band elution, slight
[4]; 0.1M Tris pH 7.5 + 6M guanidine hydrochloride
  Result of elution trial (bound rhodamine band): Complete band elution
[4]; 0.1M Tris pH 7.5 + 6M guanidine hydrochloride + 10 mM D-ribose
  Result of elution trial (bound rhodamine band): partial band elution,
[4]; 0.1M Tris pH 7.5 + 6M guanidine hydrochloride + 100 mM D-ribose
  Result of elution trial (bound rhodamine band): no band elution, significant
[4]; 0.1M Tris pH 7.5 + 6M guanidine hydrochloride + 1M D-ribose
  Result of elution trial (bound rhodamine band): No band elution, minor
[4]; 5 column volumes 0.05M sodium acetate pH 4.6
  Result of elution trial (bound rhodamine band): No band diffusion/elution
[4]; 5 column volumes 0.1M Tris pH 7.5
  Result of elution trial (bound rhodamine band): No band diffusion/elution
[4]; 5 column volumes 0.1M Tris pH 8.0
  Result of elution trial (bound rhodamine band): No band diffusion/elution
[4]; 5 column volumes 0.1M Tris pH 8.5
  Result of elution trial (bound rhodamine band): No band diffusion/elution
[4]; 5 column volumes 0.1M glycine pH 1.5
  Result of elution trial (bound rhodamine band): Complete band elution
[4]; 5 column volumes 0.1M glycine pH 2.5
  Result of elution trial (bound rhodamine band): No band diffusion/elution
[4]; 5 column volumes 0.1M glycine pH 3.5
  Result of elution trial (bound rhodamine band): No band diffusion/elution
[4]; 5 column volumes 0.1M sodium phosphate pH 12.0
  Result of elution trial (bound rhodamine band): No band diffusion/elution
[4]; 5 column volumes 0.1M sodium phosphate pH 13.0
  Result of elution trial (bound rhodamine band): No band diffusion/elution
[4]; 5 column volumes 0.1M sodium phosphate pH 13.7
  Result of elution trial (bound rhodamine band): No band diffusion/elution
[4]; 5 column volumes 1M sodium hydroxide
  Result of elution trial (bound rhodamine band): No band diffusion/elution
[4]; room temperature
  stability of bound band on column: > 1 week
[5]
  binding to BSA: no binding
[2]; 50 nM N-terminal Rhodamine B RP-Tag Small, 50 mM Tris pH 8.0, 150 mM NaCl, 10 mM 2-mercaptoethanol, 0.005% Tween 20
  Kd: 8 nM

From patent US11414454B2, “Compositions, methods, and systems for affinity-based protein identification and purification” (Auctus Biologies, Inc., priority 2017, dated 2022)
